According to article PMC12250302, “Synthesis, Antimicrobial Activities, and Model of Action of Novel Tetralone Derivatives Containing Aminoguanidinium Moiety” (International Journal of Molecular Sciences, 2025):
Converted amounts (≈) assume the structure as drawn.

Tests used:
Assay in all cases: MIC and MBC testing, broth microdilution
A. baumannii ATCC 19606 = format: cell-based, Acinetobacter baumannii; conditions: Acinetobacter baumannii; for MIC: ATCC19606, 18 h, read-out: MIC; for MBC: ATCC19606, read-out: MBC
From the text: (§1) The minimum inhibitory concentrations (MICs) and minimum bactericidal concentrations (MBCs) of the synthesized compounds effective against ESKAPE strains, S. aureus clinical isolates, and MRSA were investigated by the broth dilution method. Levofloxacin is a broad-spectrum antibacterial agent that is widely used in the treatment of ESKAPE infections. Therefore, levofloxacin was selected as the positive control for the preliminary activity screening. DMSO (0.1%) was selected as the negative control.
(§2) The minimum inhibitory concentration (MIC) of all synthesized compounds was tested by the broth microdilution method. In brief, compounds dissolved in DMSO were diluted twice continuously in a 96-well plate with MH broth. The ESKAPE pathogens (E. coli ATCC 25922, S. aureus ATCC 29213, K. pneumoniae ATCC 700603, A. baumannii ATCC 19606, P. aeruginosa ATCC 27853, and E. faecium ATCC 35667), clinical S. aureus isolates (LMY45, LMY46, LMY47, and LMY48) and methicillin-resistant Staphylococcus aureus (MRSA-1 and MRSA-2) were cultured in MH broth to logarithmic growth phase and then diluted to 1 × 10^6 CFU/mL in MH broth. Subsequently, the diluted bacterial solution was mixed with the diluted compound solution in a 96-well plate and incubated at 37 °C for a duration of 18 h. The MIC of the compounds was recorded as the lowest concentration at which no visible growth was observed. […] Each concentration was replicated thrice.

[1] = system: K. pneumoniae ATCC 700603; format: cell-based, Klebsiella pneumoniae; conditions: Klebsiella pneumoniae; for MIC: ATCC700603, 18 h, read-out: MIC; for MBC: ATCC700603, read-out: MBC
From the text: as §1, §2

S. aureus ATCC 29213 = format: cell-based, Staphylococcus aureus; conditions: Staphylococcus aureus, ATCC29213, S. aureus ATCC 29213; for MIC: 18 h, read-out: MIC; for MBC: read-out: MBC
From the text: as §1, §2

E. coli ATCC 25922 = format: cell-based, Escherichia coli; conditions: Escherichia coli; for MIC: ATCC25922, 18 h, read-out: MIC; for MBC: ATCC25922, read-out: MBC
From the text: as §1, §2

[2] = system: clinical S. aureus isolate LMY47; format: cell-based, Staphylococcus aureus; conditions: Staphylococcus aureus, LMY47; for MIC: 18 h, read-out: MIC; for MBC: read-out: MBC
Protocol: (§3) Furthermore, the MBC values of the compounds were detected.
as §2, with “h.” for “h. The MIC of the compounds was recorded as the lowest concentration at which no visible growth was observed.”

[3] = system: clinical S. aureus isolate LMY48; format: cell-based, Staphylococcus aureus; conditions: Staphylococcus aureus, LMY48; for MIC: 18 h, read-out: MIC; for MBC: read-out: MBC
Protocol: as §3
as §2, with “h.” for “h. The MIC of the compounds was recorded as the lowest concentration at which no visible growth was observed.”

MRSA-2 = format: cell-based, Staphylococcus aureus; conditions: Staphylococcus aureus, MRSA-2; for MIC: 18 h, read-out: MIC; for MBC: read-out: MBC
Protocol: as §3
as §2, with “h.” for “h. The MIC of the compounds was recorded as the lowest concentration at which no visible growth was observed.”

MRSA-1 = format: cell-based, Staphylococcus aureus; conditions: Staphylococcus aureus, MRSA-1; for MIC: 18 h, read-out: MIC; for MBC: read-out: MBC
Protocol: as §3
as §2, with “h.” for “h. The MIC of the compounds was recorded as the lowest concentration at which no visible growth was observed.”

[4] = system: clinical S. aureus isolate LMY46; format: cell-based, Staphylococcus aureus; conditions: Staphylococcus aureus, LMY46; for MIC: 18 h, read-out: MIC; for MBC: read-out: MBC
Protocol: as §3
as §2, with “h.” for “h. The MIC of the compounds was recorded as the lowest concentration at which no visible growth was observed.”

[5] = system: clinical S. aureus isolate LMY45; format: cell-based, Staphylococcus aureus; conditions: Staphylococcus aureus, LMY45; for MIC: 18 h, read-out: MIC; for MBC: read-out: MBC
Protocol: as §3
as §2, with “h.” for “h. The MIC of the compounds was recorded as the lowest concentration at which no visible growth was observed.”

E. faecium ATCC 35667 = format: cell-based, Enterococcus faecium; conditions: Enterococcus faecium, ATCC35667, E. faecium ATCC 35667; for MIC: 18 h, read-out: MIC; for MBC: read-out: MBC
From the text: as §1, §2

P. aeruginosa ATCC 27853 = format: cell-based, Pseudomonas aeruginosa; conditions: Pseudomonas aeruginosa; for MIC: ATCC27853, 18 h, read-out: MIC; for MBC: ATCC27853, read-out: MBC
From the text: as §1, §2

Row | Compound | MIC (A. baumannii ATCC 19606) [µg/mL] | MBC (A. baumannii ATCC 19606) [µg/mL] | MIC [1] [µg/mL] | MBC [1] [µg/mL] | MIC (S. aureus ATCC 29213) [µg/mL] | MIC (E. coli ATCC 25922) [µg/mL] | MIC [2] [µg/mL] | MBC [2] [µg/mL] | MIC [3] [µg/mL] | MBC [3] [µg/mL] | MIC (MRSA-2) [µg/mL] | MBC (MRSA-2) [µg/mL] | MIC (MRSA-1) [µg/mL] | MIC [4] [µg/mL] | MBC [4] [µg/mL] | MIC [5] [µg/mL] | MBC [5] [µg/mL] | MIC (E. faecium ATCC 35667) [µg/mL] | MBC (E. faecium ATCC 35667) [µg/mL] | MIC (P. aeruginosa ATCC 27853) [µg/mL] | other results
1 | [H]/N=C(\N)NN=C1CCCc2cc(OCc3cc(F)cc(F)c3)ccc21 [Compound 1G, (E)-2-(6-((3,5-difluorobenzyl)oxy)-3,4-dihydronaphthalen-1(2H)-ylidene)hydrazine-1-carboximidamide] | 8 (≈ 23.2 µM) | 8 (≈ 23.2 µM) | 16 (≈ 46.5 µM) | 16 (≈ 46.5 µM) | 2 (≈ 5.81 µM) | 8 (≈ 23.2 µM) | 2 (≈ 5.81 µM) | 8 (≈ 23.2 µM) | 2 (≈ 5.81 µM) | 2 (≈ 5.81 µM) | 2 (≈ 5.81 µM) | 16 (≈ 46.5 µM) | 2 (≈ 5.81 µM) | 2 (≈ 5.81 µM) | 8 (≈ 23.2 µM) | 2 (≈ 5.81 µM) | 4 (≈ 11.6 µM) | 4 (≈ 11.6 µM) | 8 (≈ 23.2 µM) | 32 (≈ 92.9 µM) | MBC (S. aureus ATCC 29213): 8 µg/mL (≈ 23.2 µM); MBC (E. coli ATCC 25922): 16 µg/mL (≈ 46.5 µM); MBC (MRSA-1): 16 µg/mL (≈ 46.5 µM)
2 | [H]/N=C(\N)NN=C1CCCc2cc(OCc3ccc(F)c(F)c3)ccc21 [Compound 1H, (E)-2-(6-((3,4-difluorobenzyl)oxy)-3,4-dihydronaphthalen-1(2H)-ylidene)hydrazine-1-carboximidamide] | 8 (≈ 23.2 µM) | 8 (≈ 23.2 µM) | 16 (≈ 46.5 µM) | 32 (≈ 92.9 µM) | 2 (≈ 5.81 µM) | 4 (≈ 11.6 µM) | 2 (≈ 5.81 µM) | 8 (≈ 23.2 µM) | 2 (≈ 5.81 µM) | 4 (≈ 11.6 µM) | 2 (≈ 5.81 µM) | 8 (≈ 23.2 µM) | 2 (≈ 5.81 µM) | 2 (≈ 5.81 µM) | > 32 | 2 (≈ 5.81 µM) | 4 (≈ 11.6 µM) | 4 (≈ 11.6 µM) | 16 (≈ 46.5 µM) | 32 (≈ 92.9 µM) | MBC (S. aureus ATCC 29213): 8 µg/mL (≈ 23.2 µM); MBC (E. coli ATCC 25922): 16 µg/mL (≈ 46.5 µM); MBC (MRSA-1): 32 µg/mL (≈ 92.9 µM); MBC (P. aeruginosa ATCC 27853): 32 µg/mL (≈ 92.9 µM)
3 | [H]/N=C(\N)NN=C1CCCc2cc(OCc3cccc(C(F)(F)F)c3)ccc21 [Compound 1I, (E)-2-(6-((3-(trifluoromethyl)benzyl)oxy)-3,4-dihydronaphthalen-1(2H)-ylidene)hydrazine-1-carboximidamide] | 8 (≈ 21.3 µM) | 8 (≈ 21.3 µM) | 32 (≈ 85 µM) | 32 (≈ 85 µM) | 2 (≈ 5.31 µM) | 4 (≈ 10.6 µM) | 2 (≈ 5.31 µM) | 2 (≈ 5.31 µM) | 2 (≈ 5.31 µM) | 2 (≈ 5.31 µM) | 2 (≈ 5.31 µM) | 4 (≈ 10.6 µM) | 2 (≈ 5.31 µM) | 2 (≈ 5.31 µM) | 4 (≈ 10.6 µM) | 1 (≈ 2.66 µM) | 4 (≈ 10.6 µM) | 4 (≈ 10.6 µM) | 8 (≈ 21.3 µM) | 32 (≈ 85 µM) | MBC (S. aureus ATCC 29213): 16 µg/mL (≈ 42.5 µM); MBC (E. coli ATCC 25922): 4 µg/mL (≈ 10.6 µM); MBC (MRSA-1): 16 µg/mL (≈ 42.5 µM); MBC (P. aeruginosa ATCC 27853): 32 µg/mL (≈ 85 µM)
4 | [H]/N=C(\N)NN=C1CCCc2cc(OCc3ccc(C(F)(F)F)cc3)ccc21 [Compound 1J, (E)-2-(6-((4-(trifluoromethyl)benzyl)oxy)-3,4-dihydronaphthalen-1(2H)-ylidene)hydrazine-1-carboximidamide] | 8 (≈ 21.3 µM) | 8 (≈ 21.3 µM) | 16 (≈ 42.5 µM) | 32 (≈ 85 µM) | 2 (≈ 5.31 µM) | 4 (≈ 10.6 µM) | 2 (≈ 5.31 µM) | 4 (≈ 10.6 µM) | 2 (≈ 5.31 µM) | 2 (≈ 5.31 µM) | 2 (≈ 5.31 µM) | 32 (≈ 85 µM) | 1 (≈ 2.66 µM) | 2 (≈ 5.31 µM) | 16 (≈ 42.5 µM) | 2 (≈ 5.31 µM) | 2 (≈ 5.31 µM) | 2 (≈ 5.31 µM) | 4 (≈ 10.6 µM) | 16 (≈ 42.5 µM) | MBC (S. aureus ATCC 29213): 16 µg/mL (≈ 42.5 µM); MBC (E. coli ATCC 25922): 4 µg/mL (≈ 10.6 µM); MBC (MRSA-1): 8 µg/mL (≈ 21.3 µM); MBC (P. aeruginosa ATCC 27853): > 32 µg/mL
5 | [H]/N=C(\N)NN=C1CCCc2cc(OCc3cc(C(F)(F)F)cc(C(F)(F)F)c3)ccc21 [Compound 1K, (E)-2-(6-((3,5-bis(trifluoromethyl)benzyl)oxy)-3,4-dihydronaphthalen-1(2H)-ylidene)hydrazine-1-carboximidamide] | > 32 |  | > 32 |  | 32 (≈ 72 µM) | > 32 | 4 (≈ 9 µM) | 8 (≈ 18 µM) | 4 (≈ 9 µM) | 8 (≈ 18 µM) | 8 (≈ 18 µM) | 32 (≈ 72 µM) | 16 (≈ 36 µM) | 4 (≈ 9 µM) | > 32 | 4 (≈ 9 µM) | 16 (≈ 36 µM) | 4 (≈ 9 µM) | 16 (≈ 36 µM) | > 32 | 
